From patent US4820834A, “Benzodiazepine analogs” (priority 1987, dated 1989)
Where two headings read alike, the source gives them in different places.

Assays:
[1] = target: T1, Gastrin receptor (gastric glands) (Cavia porcellus, UniProt H0VZC5); experiment: Gastrin Receptor Binding in Guinea Pig Gastric Glands; parameters: species or system guinea pig (male Hartley); details: 25° C., 30 minutes
T1 construct: The washed guinea pig gastric glands prepared as above were resuspended; from tissue; host or cells: guinea pig gastric mucosal glands (male Hartley)
T1 sequence (H0VZC5 1-426): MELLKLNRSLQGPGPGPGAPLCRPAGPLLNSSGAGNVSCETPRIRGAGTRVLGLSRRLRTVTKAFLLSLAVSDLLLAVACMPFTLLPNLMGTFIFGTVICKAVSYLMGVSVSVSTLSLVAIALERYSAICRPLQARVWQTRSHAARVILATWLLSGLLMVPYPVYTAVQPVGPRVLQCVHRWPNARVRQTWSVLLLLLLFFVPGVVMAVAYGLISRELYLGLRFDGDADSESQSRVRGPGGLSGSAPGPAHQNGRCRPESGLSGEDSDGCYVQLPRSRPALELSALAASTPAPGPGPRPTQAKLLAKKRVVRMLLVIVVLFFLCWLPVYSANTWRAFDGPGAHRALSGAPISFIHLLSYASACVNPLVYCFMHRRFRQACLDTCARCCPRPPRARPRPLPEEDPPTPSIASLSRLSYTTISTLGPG

[2] = target: T2, CCK receptor (brain, cerebral cortex) (Cavia porcellus, UniProt H0VZC5); experiment: biochemical; type: binding, Male Hartley guinea pigs; details: guinea pig cerebral cortex, ^125 I-CCK-33, 25° C., 2 hours
T2 construct: Cerebral cortex was dissected and used as a receptor source; from tissue; host or cells: guinea pig cerebral cortex membranes (male Hartley)
T2 sequence (H0VZC5 1-426): T1 sequence (H0VZC5 1-426)
Experimental: 2. CCK Recepto Binding (Brain)
CCK-33 was radiolabeled and the binding was Performed according to the description for the Pancreas method with modifications according to Saito et al., J. Neurochem.
Cerebral cortex was dissected and used as a receptor source. Each gram of fresh guinea pig brain tissue was homogenized in 10 ml of Tris/Trizma buffer with a Brinkman polytron PT-10. The homogenates were centrifuged at 42,000 g for 15 minutes. Pellets were resuspended in Tris Buffer, centrifuged as above and resuspended in 200 volumes of binding assay buffer (10 mM N-2-hydroxyethyl-piperazine-N'-2-ethane sulfonic acid (HEPES), 5 mM MgCl2, 0.25 mg/ml bacitracin, 1 mM ethylene glycol-bis-(β-aminoethylether-N,N'-tetraacetic acid) (EGTA), and 0.4% bovine serum albumin (BSA)). […] All assays were run in duplicate or triplicate. The reaction mixtures were incubated at 25° C. for 2 hours and centrifuged in a Beckman Microfuge (4 minutes) immediately after adding 1 ml of ice-cold incubation buffer. The supernatant was aspirated and discarded, pellets were counted with a Beckman gamma 5000.

[3] = IC50 ^125 I-Gastrin Gastric Glands
[4] = ^125 I-gastrin, read-out: IC50 ^125 I-Gastrin Gastric Glands
[5] = read-out: IC50 ^125 I-CCK Brain

| Compound | IC50 [1, 3] [µM] | IC50 ([2]; IC50 ^125 I-CCK Brain) [µM] | IC50 [1, 4] [µM] | IC50 [2, 5] [µM] |
| --- | --- | --- | --- | --- |
| CN(C)c1ccc(C(=O)NC2N=C(c3ccccc3F)c3ccccc3NC2=O)cc1 (racemic) [Example 152, 1,3-Dihydro-3(RS)-(p-dimethylaminobenzoylamino)-5-(2-fluorophenyl)-2H-1,4-benzodiazepin-2-one] | > 100 | > 100 | – | – |
| COc1ccc(C(=O)NC2N=C(c3ccccc3F)c3ccccc3NC2=O)cc1OC (racemic) [Example 153, 1,3-Dihydro-3(RS)-(3,4-dimethoxybenzoylamino)-5-(2-fluorophenyl)-2H-1,4-benzodiazepin-2-one] | > 40 | > 40 | – | – |
| O=C(NC1N=C(c2ccccc2)c2ccccc2NC1=O)c1cccc(SC(F)(F)F)c1 (racemic) [Example 155, 1,3-Dihydro-5-phenyl-3(RS)-(3-trifluoromethylthiobenzoylamino)-2H-1,4-benzodiazepin-2-one] | 128 | > 100 | – | – |
| O=C(NC1N=C(c2ccccc2F)c2ccccc2NC1=O)c1ccc[nH]1 (racemic) [Example 158, 1,3-Dihydro-5-(2-fluorophenyl)-3(RS)-(pyrrole-2-carbonylamino)-2H-1,4-benzodiazepin-2-one] | 25 | 100 | – | – |
| O=C(NC1N=C(c2ccccc2)c2ccccc2NC1=O)c1ccc2ccccc2c1 (racemic) [Example 160, 1,3-Dihydro-3(RS)-(2-naphthoylamino)-5-phenyl-2H-1,4-benzodiazepin-2-one] | 14 | 12 | – | – |
| CCCc1ccc(C(=O)NC2N=C(c3ccccc3)c3ccccc3NC2=O)cc1 (racemic) [Example 163, 1,3-Dihydro-5-phenyl-3(RS)-(4-α-propylbenzoylamino)-2H-1,4-benzodiazepin-2-one] | 80 | 12 | – | – |
| O=C(NC1N=C(c2ccccc2)c2ccccc2NC1=O)c1ccc(-c2ccccc2)cc1 (racemic) [Example 164, 1,3-Dihydro-5-phenyl-3(RS)-(4-phenylbenzoylamino)-2H-1,4-benzodiazepin-2-one] | > 100 | 18 | – | – |
| CCCCCc1ccc(C(=O)NC2N=C(c3ccccc3)c3ccccc3NC2=O)cc1 (racemic) [Example 165, 1,3-Dihydro-3(RS)-(4-n-pentylbenzoylamino)-5-phenyl-2H-1,4-benzodiazepin-2-one] | > 100 | 8 | – | – |
| O=C(NC1N=C(c2ccccc2)c2ccccc2NC1=O)c1cccc2ccccc12 (racemic) [Example 166, 1,3-Dihydro-3(RS)-(1-naphthoylamino)-5-phenyl-2H-1,4-benzodiazepin-2-one] | 29 | 12 | – | – |
| O=C(NC1N=C(c2ccccc2F)c2ccccc2NC1=O)c1ccccc1 (racemic) [Example 173, 1,3-Dihydro-5-(2-fluorophenyl)-3(RS)-phenylcarbonylamino-2H-1,4-benzodiazepin-2-one] | 28 | > 40 | – | – |
| O=C(NC1N=C(c2ccccc2F)c2ccccc2NC1=O)c1ccccc1Cl (racemic) [Example 174, 1,3-Dihydro-5-(2-fluorophenyl)-3(RS)-(2-chlorophenyl)carbonylamino-2H-1,4-benzodiazepin-2-one] | 18 | > 40 | – | – |
| O=C(NC1N=C(c2ccccc2F)c2ccccc2N(C(=O)c2ccc(Cl)cc2)C1=O)c1ccc(Cl)cc1 (racemic) [Example 177, 1-(4-Chlorophenyl)carbonyl-1,3-dihydro-5-(2-fluorophenyl)-3(RS)-(4-chlorophenyl)carbonylamino-2H-1,4-benzodiazepin-2-one] | 0.55 | 3.7 | – | – |
| O=C(Nc1ccc(Cl)cc1)NC1N=C(c2ccccc2F)c2ccccc2NC1=O (racemic) [Example 182, 1,3-Dihydro-3(RS)-(4-chlorophenyl)aminocarbonylamino-5-(2-fluorophenyl)-2H-1,4-benzodiazepin-2-one] | 0.26 | 0.3 | – | – |
| N[C@@H](Cc1ccccc1)C(=O)NC1N=C(c2ccccc2)c2ccccc2NC1=O (single isomer, unassigned) [Example 186] | – | – | > 100 | > 100 |
| CCN(CC)C(=O)C(C)N1C(=O)C(NC(=O)Nc2ccc(Cl)cc2)N=C(c2ccccc2)c2ccccc21 (single isomer, unassigned) [Example 249, 3-((((4-Chlorophenyl)amino)carbonyl)amino)-N,N,-diethyl-2,3-dihydro-alpha-methyl-2-oxo-5-phenyl-1H-1,4-benzodiazepine-1-acetamide] | – | – | 0.012 | 0.022 |
| CN1C(=O)[C@@H](NC(=O)[C@@H](N)Cc2ccccc2)N=C(c2ccccc2)c2ccccc21 [Example 84a, 3(S)-(2(S)-amino-3-phenylpropanoylamino)-1,3-dihydro-1-methyl-5-phenyl-2H-1,4-benzodiazepin-2-one] | – | > 40 | > 40 | – |
| CN1C(=O)[C@H](NC(=O)[C@@H](N)Cc2ccccc2)N=C(c2ccccc2)c2ccccc21 [Example 84b, 3(R)-(2(S)-amino-3-phenylpropanoylamino)-1,3-dihydro-1-methyl-5-phenyl-2H-1,4-benzodiazepin-2-one] | – | > 100 | 55 | – |
| CN1C(=O)[C@H](N)N=C(c2ccccc2)c2ccccc21 [Example 85b, 3(R)-(+)-3-amino-1,3-dihydro-1-methyl-5-phenyl-2H-1,4-benzodiazepin-2-one] | > 100 | > 100 | – | – |
| CN1C(=O)[C@@H](NC(=O)c2ccccc2Br)N=C(c2ccccc2F)c2ccccc21 [Example 161, 3(S)-(-)-3-(2-Bromobenzoylamino)-1,3-dihydro-5-(2-fluorophenyl)-1-methyl-2H-1,4-benzodiazepin-2-one] | – | 70 | 19 | – |
| CN1C(=O)[C@@H](NC(=O)c2cccc(I)c2)N=C(c2ccccc2F)c2ccccc21 [Example 167, 3(S)-(+)-1,3-Dihydro-5-(2-fluorophenyl)-3-(3-iodobenzoylamino)-1-methyl-2H-1,4-benzodiazepin-2-one] | – | – | 0.39 | 1.7 |
| CN1C(=O)[C@H](NC(=O)c2ccccc2Br)N=C(c2ccccc2F)c2ccccc21 [Example 171, 3(R)-(+)-3-(2-Bromobenzoylamino)-1,3-dihydro-5-(2-fluorophenyl)-1-methyl-2H-1,4-benzodiazepin-2-one] | – | 5.6 | 5.8 | – |
| CCOC(=O)CN1C(=O)C(NC(=O)c2ccccc2Cl)N=C(c2ccccc2F)c2ccccc21 (stereo not shown) [Example 188, 3-(2'-Chlorobenzoylamino)-1-ethoxycarbonylmethyl-5-(2'-fluorophenyl)-2H-1,4-benzodiazepine-2-one] | 1.3 | 3.2 | – | – |
| CN1C(=O)[C@@H](NC(=O)C=Cc2ccccc2)N=C(c2ccccc2)c2ccccc21 [Example 192, (S)-N-(2,3-Dihydro-1-methyl-2-oxo-5-phenyl-1H-1,4-benzodiazeoin-3-yl)-3-phenyl-2-propenamide] | – | – | 0.18 | 0.64 |
| CN1C(=O)[C@H](NC(=O)C2CCCCC2)N=C(c2ccccc2)c2ccccc21 [Example 198, (R)-N-(2,3-Dihydro-1-methyl-2-oxo-5-phenyl-1H-1,4-benzodiazepin-3-yl)-cyclohexanecarboxamide] | – | – | 1.5 | 18 |
| CN1C(=O)[C@@H](NC(=O)[C@@H](Cc2ccccc2)NC(=O)OC(C)(C)C)N=C(c2ccccc2F)c2ccccc21 [Example 232, (S-(R*,S*))-(2-((5-(2-Fluorophenyl)-2,3-dihydro-1-methyl-2-oxo-1H-1,4-benzodiazepin-3-yl)amino)-2-oxo-1-(phenylmethyl)ethyl)-carbamic acid 1,1-dimethylethyl ester] | – | – | 1.2 | 1 |
| CN1C(=O)[C@@H](NC(=O)c2ccccc2I)N=C(c2ccccc2)c2ccccc21 [Example 283, (S)-N-(2,3-Dihydro-1-methyl-2-oxo-5-phenyl-1H-1,4-benzodiazepin-3-yl)-2-iodobenzamide] | – | – | 66 | 71 |
